Data: US8796245B2 (TetraPhase Pharmaceuticals, Inc., priority 2008, dated 2014)
Converted amounts (≈) assume the structure as drawn.

Key:
[1] = system: clinical isolates of S. aureus; assay: SA MIC90; type: cell-based; conditions: Staphylococcus aureus; inhibit 90% of S. aureus clinical isolates (n = 20); read-out: SA MIC 90
Method: Twenty randomly selected clinical isolates of S. aureus were used to determine the minimal inhibitory concentration (MIC) of test compounds for 90% of the isolates (MIC90). MICs were performed by microtiter broth dilution in a 96-well format according to Clinical Laboratory Standards Institute (CLSI) guidelines, as described above. Viable counts were determined by 10-fold serial dilution. Dilutions were prepared in sterile 0.9% NaCl. Ten microliters of the inoculum and of each of 5 dilutions were plated onto blood or Mueller Hinton agar plates, incubated overnight at 37° C. with 5% CO2, and counted.

[2] = system: S. aureus isolate, ATCC 13709; assay: ED50 IV study, mouse systemic infection model; type: in vivo; conditions: Staphylococcus aureus, ATCC13709, mg/kg required to protect 50% of mice in septicemia model with S. aureus Smith strain, 60 minutes post infection, 48 hour survival
Method: (§1) Compounds of the present invention were evaluated for efficacy in a mouse systemic infection model against a susceptible S. aureus isolate, ATCC 13709. Mice were infected via intraperitoneal injection with a bacterial load that would result in 0% survival within 48 hours after infection. Mice received the test compounds 60 minutes post infection via intravenous injection. […] Survival was assessed over a 48 hour period. Percent survival was calculated and PD50 values determined using Probit analysis.

[3] = system: tetracycline-resistant S. aureus; assay: TetR MIC90; type: cell-based; conditions: Staphylococcus aureus; inhibit 90% of tetracycline-resistant S. aureus (n = 10); read-out: TetR MIC 90
Method: (§2) Twenty randomly selected clinical isolates of S. aureus were used to determine the minimal inhibitory concentration (MIC) of test compounds for 90% of the isolates (MIC90). MICs were performed by microtiter broth dilution in a 96-well format according to Clinical Laboratory Standards Institute (CLSI) guidelines, as described above.

[4] = system: clinical isolates of E. coli; assay: EC MIC90; type: cell-based; conditions: Escherichia coli; inhibit 90% of E. coli clinical isolates (n = 20); read-out: EC MIC 90
Method: as §2, with “above. Twenty randomly selected clinical isolates of E. coli were used to determine the MIC90 as described above.” for “above.”

[5] = Metabolic stability, pooled human microsome assay; type: in vitro ADME; conditions: % compound remaining after 60 min, 37° C. incubation with human liver microsomes
Method: A stock solution of the test compounds were prepared by dissolving the compound in DMSO to a final concentration of 1.0 mg/mL. The analytes and internal standard were diluted and infused into the LC/MS system to determine optimal ionization, polarity and MS/MS fragmentation for selection of specific MRM (multiple reaction monitoring) transitions. Generic chromatographic conditions were developed with a less than 5 minute cycle time. Pooled human microsome assays were conducted at 0.2 mg/mL protein with an NADPH generating cofactor system (1.3 mM NADP+, 3.3 mM glucose-6-phosphate, 0.4 U/mL glucose-6-phosphate dehydrogenase, and 3.3 mM magnesium chloride). Test compounds were diluted from DMSO stocks to 1 μM reaction concentrations. Time points were removed at 0 and 60 minutes. After a protein crash with acetonitrile, samples are analyzed by LC/MS/MS. Peak areas are compared to the time 0 sample, and the percent analyte remaining is calculated. A reaction containing no cofactor was used to control for analyte loss due to non-specific binding, thermal degradation and solubility.

[6] = Protein binding in human plasma (RED devices); type: in vitro ADME; conditions: % Protein binding in human plasma with compound at 10 uM
Method: Test compounds were prepared as 1.0 mg/mL stock solutions in DMSO. The analytes and internal standard were diluted and infused into the LC/MS system to determine optimal ionization, polarity and MS/MS fragmentation for selection of specific MRM (multiple reaction monitoring) transitions. Generic chromatographic conditions were developed with a less than 5 minute cycle time.
[…] The time point was removed at the end of the incubation period. After a protein crash with acetonitrile, the samples were analyzed by LC/MS/MS. Peak areas for the buffer (receiver) and sample (donor) chambers were compared and the protein bound fraction is calculated. Analysis was conducted in duplicate.

E. coli ATCC 25922 = assay: GN sepsis study, mouse systemic infection model; type: in vivo; conditions: mg/kg required to protect 50% of mice in septicemia model with E. coli strain
Method: as §1, with “analysis. The protocol for GN sepsis study was similar to the protocol for EV50 IV study described above except the infection model used E. coli ATCC 25922.” for “analysis.”

[7] = system: S. aureus SA161, a tetracycline-resistant strain; assay: Tet-R sepsis study, mouse systemic infection model; type: in vivo; conditions: mg/kg required to protect 50% of mice in septicemia model with tetracycline-resistant S. aureus strain
Method: as §1
The protocol for tetracycline-resistance sepsis study was similar to the protocol for EV50 IV study described above except the infection model used S. aureus SA161, a tetracycline-resistant strain.

S. aureus ATCC 13709 = assay: Thigh burden, neutropenic mouse thigh infection; type: in vivo; conditions: maximum log10 reduction in bacteria compared to untreated control, achieved at tested doses; neutropenic mice, IV
Method: Female CD-1 mice were pre-treated with cyclophosphamide to render the mice neutropenic. Mice were infected with S. aureus ATCC 13709 via injection into the right thigh muscle of 0.1 ml per mouse. One and a half hours post infection mice were treated IV with test compounds in doses ranging from 0.3 to 30 mg/kg or 0.3 to 20 mg/kg. Four mice were treated with each drug concentration. Twenty-four hours post treatment, mice were euthanized by CO2 inhalation. The right thighs of the mice were aseptically removed, weighed, homogenized, serially diluted, and plated on TSA medium. The plates were incubated overnight at 37° C. in 5% CO2. Colony forming units per gram of thigh was calculated by enumerating the plated colonies then adjusting for serial dilutions and the weight of the thigh.

Structure (SMILES) | MIC90 [1] [µg/mL] | ED50 [2] [mg/kg] | MIC90 [3] [µg/mL] | MIC90 [4] [µg/mL] | Meta Stab % [5] [%] | Prot Bind % [6] [%] | GN sepsis (E. coli ATCC 25922) [mg/kg] | TetR sepsis [7] [mg/kg] | Thigh Burden (S. aureus ATCC 13709) [log10 decrease]
CN(C)[C@@H]1C(O)=C(C(N)=O)C(=O)[C@@]2(O)C(O)=C3C(=O)c4c(O)c(NC(=O)CNCC5CC5)cc(F)c4C[C@H]3C[C@@H]12 [drawing 218] | 0.03 (≈ 0.0537 µM) | 0.55 | 8 (≈ 14.3 µM) | 2 (≈ 3.58 µM) | 65 | 87.9 |  |  | 
CC(C)CNCC(=O)Nc1cc(F)c2c(c1O)C(=O)C1=C(O)[C@]3(O)C(=O)C(C(N)=O)=C(O)[C@@H](N(C)C)[C@@H]3C[C@@H]1C2 [drawing 215] | 0.03 (≈ 0.0535 µM) | 0.55 | 4 (≈ 7.14 µM) | 1 (≈ 1.78 µM) | 72 | 95.6 | 14.3 | 3.5 | 5.01
CN(C)c1cc(NC(=O)CNC(C)(C)C)c(O)c2c1C[C@H]1C[C@H]3[C@H](N(C)C)C(O)=C(C(N)=O)C(=O)[C@@]3(O)C(O)=C1C2=O | 0.06 (≈ 0.102 µM) | 0.97 | 1 (≈ 1.71 µM) | 0.5 (≈ 0.854 µM) | 55 | 69.1 | 2.1 | 0.55 | 4.89
CC(C)NCC(=O)Nc1cc(F)c2c(c1O)C(=O)C1=C(O)[C@]3(O)C(=O)C(C(N)=O)=C(O)[C@@H](N(C)C)[C@@H]3C[C@@H]1C2 [drawing 219] | 0.06 (≈ 0.11 µM) | 0.3 | 2 (≈ 3.66 µM) | 1 (≈ 1.83 µM) | 96 | 96.9 |  |  | 
CN(C)CC(=O)Nc1cc(F)c2c(c1O)C(=O)C1=C(O)[C@]3(O)C(=O)C(C(N)=O)=C(O)[C@@H](N(C)C)[C@@H]3C[C@@H]1C2 [drawing 220] | 0.06 (≈ 0.113 µM) | 0.073 | 4 (≈ 7.51 µM) | 4 (≈ 7.51 µM) | 109 | 93.6 | 4.3 | 0.62 | 4.12
CN(C)[C@@H]1C(O)=C(C(N)=O)C(=O)[C@@]2(O)C(O)=C3C(=O)c4c(O)c(NC(=O)CN5CCC5)cc(F)c4C[C@H]3C[C@@H]12 [drawing 216] | 0.03 (≈ 0.0551 µM) | 0.07 | 4 (≈ 7.35 µM) | 0.5 (≈ 0.918 µM) | 85 | 87.1 |  |  | 
CN(C)[C@@H]1C(O)=C(C(N)=O)C(=O)[C@@]2(O)C(O)=C3C(=O)c4c(O)c(NC(=O)CNC(C)(C)C)cc(F)c4C[C@H]3C[C@@H]12 [drawing 214] | 0.03 (≈ 0.0535 µM) | 0.3 | 2 (≈ 3.57 µM) | 0.5 (≈ 0.892 µM) | 104 | 90 | 6.2 | 0.4 | 4.41
CN(C)[C@@H]1C(O)=C(C(N)=O)C(=O)[C@@]2(O)C(O)=C3C(=O)c4c(O)c(NC(=O)CN5CCCC5)cc(F)c4C[C@H]3C[C@@H]12 [drawing 217] | 0.03 (≈ 0.0537 µM) | 0.3 | 2 (≈ 3.58 µM) | 0.5 (≈ 0.895 µM) | 86 | 79.4 | 4.36 | 1 | 5.24
